Patent US9453242B2, “Method and culture medium for preparing mammalian ovum or embryo in which zona pellucida has been thinned or eliminated, and method for fertilization using mammalian ovum prepared by same method” (NATIONAL UNIVERISTY CORPORATION KUMAMOTO UNIVERSITY, priority 2010, dated 2016)
Like-named read-outs stand apart in the source and are kept apart here.

Assays:
[1] = tested on: zona pellucida of mouse fresh unfertilized ovums
Method: Mouse fresh unfertilized ovums in which cumulus cells had been removed prepared according to the above-described “1. Preparation of ovum” were prepared. The ovums were treated with an HTF culture medium containing glutathione at a concentration of 100 mM (30.7 mg/ml) at 20° C. for 90 seconds. The operation conducted is explained referring to FIG. 7. Onto the bottom of a petri dish, 10 μl of a glutathione-containing HTF culture medium was dropped, and 10 embryos were inserted into this. […] After confirmation of disappearance of zona pellucida, the embryos were immediately diluted with 1000 μl of an HTF culture medium containing no glutathione, for avoiding damage on the embryos. Thereafter, the zona pellucida-eliminated embryos were transferred into a 100 μl drop of HTF, and further, transferred into a 100 μl drop of HTF twice, thus continuing incubation.
Elimination of the zona pellucida of an unfertilized ovum was conducted in the same manner as in Example 4 excepting use of an HTF culture medium having a glutathione concentration of 50 mM (15.4 mg/ml).
Mouse fresh unfertilized ovums in which cumulus cells had been removed prepared according to the above-described “1. Preparation of oocyte” were prepared, then, 10 μl of an HTF culture medium containing glutathione at various concentrations (5, 10, 25, 50, 100, 200 and 300 mM) was dropped onto the bottom of a petri dish, and 20 ovums were inserted into this, and the time until elimination of zona pellucida was measured.

[2] = tested on: mouse unfertilized ovum (cumulus-oocyte complexes)
Method: A sperm suspension is pre-incubated in 90 μl of a TYH culture medium at 37° C. for 30 minutes, and under a stereomicroscope, sperms showing motility are collected, avoiding nonmotile sperms, and used for fertilization. The pre-incubated sperm suspension (10 μl) is added to 90 μl of an HTF culture medium (±glutathione) into which cumulus-oocyte complexes (COCs) have been previously introduced (insemination), and these are co-incubated in an incubator for 5 to 6 hours (37° C., 5% CO2), thereby performing fertilization. Thereafter, the ovum is washed with drops of new HTF, and the ovum is observed. Those judged to parthenogenetic (only one pronucleus is recognized in ooplasm) are excluded, and on the following day (24 hours after insemination), only 2-cell stage embryos are selected, and fertilization rate is determined according to the following formula. In vitro fertilization rate (%)=(number of 2-cell stage embryo)/(number of 2-cell stage embryo+number of unfertilized ovum)×100
According to the ordinary method as described above, fresh sperms and frozen sperms of C57BL/6J mice and refrigerated sperms (refrigerated for 2 days) of ICR mice were used to prepare sperm suspensions, which were used for conducting in vitro fertilization. Further, according to the ordinary method as described above, mouse fresh unfertilized ovums were prepared and cumulus-oocyte complexes were obtained.
The HTF culture medium was prepared according to the composition table described above. To the prepared HTF culture medium was added reduced glutathione so that its concentration was 1 mM (0.307 mg/ml), to prepare a glutathione-containing culture medium. Specifically, the HTF culture medium was prepared according to the composition table, and the culture medium was enclosed in an amount of 5 ml for each operation into an ample (component A). Further, 30.7 mg of reduced glutathione (available from SIGMA) and 593.8 mg of NaCl were mixed, then, the mixture was dispensed in one-time use amount (glutathione 1.535 mg/mixture 31.225 mg) (component B). Until use, these reagents were refrigerated, and directly before use, the component A and the component B were mixed and used for insemination. As the control, only the component A (THF culture medium containing no glutathione added) was used.
Specifically, into 90 μl of a HTF culture medium (glutathione concentration: 1 mM) containing cumulus-oocyte complexes (COCs) in a dish were added sperm suspensions (collected motile sperms) of fresh sperms, frozen sperms and refrigerated sperms each in an amount of 10 μl, and fertilization was conducted and fertilization rate was determined according to the above-described theory. An HTF culture medium containing no glutathione was used as the control.
Fertilization rate was investigated using various reduced glutathione concentrations, in the same manner as in Example 1. As the sperm, frozen sperms of C57BL/6J mice were used, and processed according to FIG. 1.
Regarding the sperms, fresh sperms and frozen sperms pre-incubated with MBCD were used in performing fertilization. The concentration of glutathione in an HTF culture medium was 0.25 mM in the case of fresh sperms and 1 mM in the case of frozen sperms. The sperms were pre-incubated with a MBCD-containing TYH culture medium (no glutathione) before fertilization, in the same manner as in Example 3. The pre-incubation time was 1 hour in the case of fresh sperms and 30 minutes in the case of frozen sperms.
The sperms were pre-incubated with a MBCD-containing TYH culture medium (no glutathione) before fertilization, in the same manner as in Example 3. The pre-incubation time was 1 hour.

[3] = glutathione 100 mM (30.7 mg/ml), 20° C.

SMILES: N[C@@H](CCC(=O)N[C@@H](CS)C(=O)NCC(=O)O)C(=O)O [glutathione, reduced glutathione]
- glutathione concentration at which zona pellucida was eliminated [1]: ≥ 50 mM
- condition of zona pellucida ([1]; glutathione 5 mM in HTF): thinning
- condition of zona pellucida ([1]; glutathione 10 mM in HTF): thinning
- condition of zona pellucida ([1]; glutathione 25 mM in HTF): thinning
- condition of zona pellucida ([1]; glutathione 50 mM in HTF): elimination
- time (second) necessary for lysis of zona pellucida ([1]; glutathione 50 mM in HTF): <1,500 second
- zona pellucida-eliminated embryos produced ([1]; glutathione 50 mM, using 20 embryos, 2 experiments): 20
- time after which zona pellucida began to become thin (swell) [1, 3]: 30 s
- time after which zona pellucida disappeared completely [1, 3]: 90 s
- condition of zona pellucida ([1]; glutathione 100 mM in HTF): elimination
- time (second) necessary for lysis of zona pellucida ([1]; glutathione 100 mM in HTF): <60 s
- zona pellucida-eliminated embryos produced ([1]; glutathione 100 mM, using 70 embryos, 10 experiments): 70
- condition of zona pellucida ([1]; glutathione 200 mM in HTF): elimination
- time (second) necessary for lysis of zona pellucida ([1]; glutathione 200 mM in HTF): <50 s
- condition of zona pellucida ([1]; glutathione 300 mM in HTF): elimination
- time (second) necessary for lysis of zona pellucida ([1]; glutathione 300 mM in HTF): <10 s
- fertilization rate (%) ([2]; 129T2/SvEmsJ, cryopreserved sperms pre-incubated with MBCD, glutathione 1 mM): 82.1%
- fertilization rate (%) ([2]; 129T2/SvEmsJ, fresh sperms pre-incubated with MBCD, glutathione 0.25 mM): 84.9%
- fertilization rate (%) ([2]; B6C3F1, cryopreserved sperms pre-incubated with MBCD, glutathione 1 mM): 87.6%
- fertilization rate (%) ([2]; B6C3F1, fresh sperms pre-incubated with MBCD, glutathione 0.25 mM): 97.7%
- fertilization rate (%) ([2]; BALB/c, cryopreserved sperms pre-incubated with MBCD, glutathione 1 mM): 68.3%
- fertilization rate (%) ([2]; BALB/c, fresh sperms pre-incubated with MBCD, glutathione 0.25 mM): 74.7%
- fertilization rate (%) ([2]; BDF1, cryopreserved sperms pre-incubated with MBCD, glutathione 1 mM): 98.3%
- fertilization rate (%) ([2]; BDF1, fresh sperms pre-incubated with MBCD, glutathione 0.25 mM): 94.2%
- fertilization rate (%) ([2]; C3H/He, cryopreserved sperms pre-incubated with MBCD, glutathione 1 mM): 98.0%
- fertilization rate (%) ([2]; C3H/He, fresh sperms pre-incubated with MBCD, glutathione 0.25 mM): 97.5%
- fertilization rate (%) ([2]; C57BL/6J, cryopreserved sperms pre-incubated with MBCD, glutathione 1 mM): 97.9%
- fertilization rate (%) ([2]; C57BL/6J, fresh sperms pre-incubated with MBCD, glutathione 0.25 mM): 95.6%
- fertilization rate (%) ([2]; C57BL/6N, cryopreserved sperms pre-incubated with MBCD, glutathione 1 mM): 90.9%
- fertilization rate (%) ([2]; C57BL/6N, fresh sperms pre-incubated with MBCD, glutathione 0.25 mM): 90.9%
- fertilization rate (%) ([2]; DBA/2N, cryopreserved sperms pre-incubated with MBCD, glutathione 1 mM): 95.8%
- fertilization rate (%) ([2]; DBA/2N, fresh sperms pre-incubated with MBCD, glutathione 0.25 mM): 95.2%
- fertilization rate (%) ([2]; ICR, cryopreserved sperms pre-incubated with MBCD, glutathione 1 mM): 94.9%
- fertilization rate (%) ([2]; ICR, fresh sperms pre-incubated with MBCD, glutathione 0.25 mM): 93.8%
- reduced glutathione concentration giving remarkable improvement in fertilization rate ([2]; fresh sperms): ≥ 0.075 mg/mL
- fertilization rate (%) ([2]; fresh sperms of C57BL/6J mice, glutathione 1 mM in HTF): 82.5%
- effect on fertilization rate ([2]; fresh sperms, various lineages, glutathione 0.25 mM): sufficient improvement in fertilization rate
- glutathione concentration at which improvement in fertilization rate was confirmed ([2]; frozen C57BL/6J sperms): ≥ 0.5 mM
- fertilization rate (%) ([2]; frozen sperms of C57BL/6J mice, glutathione 1 mM in HTF): 92.1%
- effect on fertilization rate ([2]; frozen sperms, all mouse lineages, glutathione 1 mM): remarkable improvement in fertilization rate for frozen sperms
- number of 2-cell stage embryo(%) ([2]; glutathione 0.25 mM, frozen C57BL/6J sperms): 67%
- number of 2-cell stage embryo ([2]; glutathione 0.25 mM, frozen C57BL/6J sperms, 279 oocytes): 187
- number of 2-cell stage embryo(%) ([2]; glutathione 0.50 mM, frozen C57BL/6J sperms): 79%
- number of 2-cell stage embryo ([2]; glutathione 0.50 mM, frozen C57BL/6J sperms, 316 oocytes): 251
- number of 2-cell stage embryo(%) ([2]; glutathione 0.75 mM, frozen C57BL/6J sperms): 82%
- number of 2-cell stage embryo ([2]; glutathione 0.75 mM, frozen C57BL/6J sperms, 307 oocytes): 252
- effect on fertilization rate ([2]; glutathione 1 mM, fresh, frozen and refrigerated sperms): significant improvement in fertilization rate
- number of 2-cell stage embryo(%) ([2]; glutathione 1.00 mM, frozen C57BL/6J sperms): 92%
- number of 2-cell stage embryo ([2]; glutathione 1.00 mM, frozen C57BL/6J sperms, 276 oocytes): 254
- number of 2-cell stage embryo(%) ([2]; glutathione 1.25 mM, frozen C57BL/6J sperms): 93%
- number of 2-cell stage embryo ([2]; glutathione 1.25 mM, frozen C57BL/6J sperms, 292 oocytes): 272
- number of 2-cell stage embryo(%) ([2]; glutathione 1.50 mM, frozen C57BL/6J sperms): 89%
- number of 2-cell stage embryo ([2]; glutathione 1.50 mM, frozen C57BL/6J sperms, 294 oocytes): 262
- number of 2-cell stage embryo(%) ([2]; glutathione 2.00 mM, frozen C57BL/6J sperms): 92%
- number of 2-cell stage embryo ([2]; glutathione 2.00 mM, frozen C57BL/6J sperms, 309 oocytes): 285
- number of 2-cell stage embryo(%) ([2]; glutathione 5.00 mM, frozen C57BL/6J sperms): 86%
- number of 2-cell stage embryo ([2]; glutathione 5.00 mM, frozen C57BL/6J sperms, 292 oocytes): 251
- number of 2-cell stage embryo(%) ([2]; glutathione 10.00 mM, frozen C57BL/6J sperms): 81%
- number of 2-cell stage embryo ([2]; glutathione 10.00 mM, frozen C57BL/6J sperms, 341 oocytes): 276
- fertilization rate (%) ([2]; refrigerated sperms (2 days) of ICR mice, glutathione 1 mM in HTF): 63.9%
- fertilization rate ([2]; refrigerated sperms of C57BL/6J mice pre-incubated with MBCD 1 hour, glutathione 0.5 mM): 85.4%
